Publication PMC12169669, “Regio- and Stereoselective Synthesis of Nitro-fatty Acids as NRF2 Pathway Activators Working under Ambient or Hypoxic Conditions” (Journal of Medicinal Chemistry, 2025)

Test: Cytotoxicity assay (sulforhodamine B, SRB)
Format: cell-based
Settings: mouse, mouse embryonic fibroblasts (MEFs; STO)
Experimental: For cytotoxicity experiments, mouse embryonic fibroblasts (MEFs; STO, 86032003, Sigma-Aldrich) were cultured in DMEM (41966-029, Thermo Fisher Scientific) + 5% FBS and were seeded at 10,000 cells per well in a 96-well plate and allowed to adhere for 8 h under atmospheric conditions. Plates were then placed in incubators with the specified oxygen concentrations (21%, 4%, or 1%) and incubated overnight. The following day, the medium was replaced with fresh medium (+5% FBS) adjusted to match the target oxygen concentrations and containing the test compounds (1–100 μM). After 24 h of incubation, adherent cells were stained using a modified sulforhodamine B (SRB) assay as described in. SRB was obtained from Sigma-Aldrich (S1402). Briefly, the medium was aspirated, and cells were fixed with 10% cold trichloroacetic acid. After washing twice with distilled water, the cells were stained with 0.1% SRB dissolved in 1% acetic acid. The cells were then washed 3–4 times with 1% acetic acid and allowed to dry. The stain was solubilized with 10 mM unbuffered TRIS base, and absorbance was measured at 540 nm (Infinite M200 Pro, Tecan, Austria). The cell viability of treated samples was calculated as a percentage of nontreated controls, and IC50 values were determined (see Statistics). According to the IC50 values, a nontoxic 2 μM concentration of NO2FAs was used in further in vitro experiments. For detailed results, see Supporting Information Figure S1 and Table S3. Values are presented as arithmetic means ± standard deviations (SD), unless otherwise specified. Half-maximal inhibitory concentration (IC50) values were calculated using four-parameter logistic regression (dose vs response). For Western blot analyses, one-way ANOVA with Dunnett’s multiple comparisons test was performed against control samples. The significance level was set at p < 0.05. Statistical analyses were conducted using GraphPad Prism v10.4 (GraphPad Software, www.graphpad.com). Statistical methods and the number of experiments are indicated in the figure legends. page 9: Supporting information S9 Cytotoxicity of tested NO2FA derivatives (Figure S1) 1 10 100 0 50 100 150 21% O2 Concentration (µM) % of control 1 10 100 0 50 100 150 4% O2 Concentration (µM) % of control 1 10 100 0 50 100 150 1% O2 Concentration (µM) % of control 10-NO2OA 9-NO2OA 10-NO2LA 9-NO2cLA 10-NO2SA A B C Figure S 1. Cytotoxicity of tested NO2FA derivatives. Mouse embryonic fibroblasts (MEFs) were cultured under varying oxygen conditions (21, 4, and 1%) and treated for 24 hours with the tested NO₂FAs, after which adherent cells were stained with sulforhodamine B. Results are presented as a percentage of control cells across different oxygen culture conditions (A–C). IC₅₀ values were determined from dose-response curves (see Supplementary Table S3). Data are expressed as mean ± SD from three independent experiments (n = 3). (1 picture or pasted object on this page, not shown here) page 11: Supporting information Calculated IC50 values of tested NO2FA derivatives (Table S3) Table S 3. Calculated IC50 values of tested NO2FA derivatives. IC 21% O2 4% O2 1% O2 50 Value SEM Value SEM Value SEM 10-NO2OA 6.28 0.19 5.74 0.20 8.19 0.21 9-NO2OA 9.47 0.57 7.75 0.54 6.93 0.32 10-NO2LA 11.78 0.41 11.17 0.26 13.79 1.02 9-NO2cLA 18.03 1.96 17.19 2.26 14.31 1.82 10-NO2SA ≈100 >100 >100 IC₅₀ values were derived from dose-response curves using four-parameter logistic regression across different oxygen culture conditions. Data are presented as mean and SEM values from three independent experiments (n = 3). The IC₅₀ values calculated for cultures in 21% oxygen indicate an increasing cytotoxic potential in the order: 10-NO₂OA > 9-NO₂OA > 10-NO₂LA > 9-NO₂cLA. […] In 1% oxygen, the order of cytotoxic potential shifted slightly to 9-NO₂OA > 10-NO₂OA > 10-NO₂LA > 9-NO₂cLA. However, differences in IC₅₀ values across the oxygen conditions for each NO₂FA derivative ranged from ca. 1 to 3 µM. […]

Compound | IC50 at 24 h (1% O2) | IC50 at 24 h (4% O2) | IC50 at 24 h (21% O2) | IC50 at 24 h (under all three oxygen conditions (21, 4, 1%))
CCCCCCCC/C=C(\CCCCCCCC(=O)O)[N+](=O)[O-] [9-NO2OA, (9E)-9-Nitro-oleic Acid] | 6.93 ± 0.32 µM | 7.75 ± 0.54 µM | 9.47 ± 0.57 µM | 
CCCCCC/C=C/C=C(\CCCCCCCC(=O)O)[N+](=O)[O-] [9-NO2cLA, (9E,11E)-9-Nitro Conjugated Linoleic Acid] | 14.3 ± 1.82 µM | 17.2 ± 2.26 µM | 18 ± 1.96 µM | 
CCCCC/C=C\C/C(=C\CCCCCCCC(=O)O)[N+](=O)[O-] [10-NO2LA, (9E,12Z)-10-Nitro Linoleic Acid] | 13.8 ± 1.02 µM | 11.2 ± 0.26 µM | 11.8 ± 0.41 µM | 
CCCCCCCC/C(=C\CCCCCCCC(=O)O)[N+](=O)[O-] [10-NO2OA, (9E)-10-Nitro-oleic Acid] | 8.19 ± 0.21 µM | 5.74 ± 0.2 µM | 6.28 ± 0.19 µM | 
CCCCCCCCC(CCCCCCCCC(=O)O)[N+](=O)[O-] (stereo not shown) [10-NO2SA, 10-Nitro Stearic acid] | > 100 µM | > 100 µM | ~100 µM | ≥ 100 µM
